Experimental data as given in patent US10934310B2, “Inhibitors of Bruton's tyrosine kinase and method of their use” (JANSSEN PHARMACEUTICA NV, priority 2015, dated 2021).

Target: unphosphorylated-BTK kinase domain (UP-BTK), GST-tagged human BTK (389-659aa) (Homo sapiens (Human), UniProt Q06187)
Test: BTK Kinase Lanthascreen Binding Assay
Conditions: for BTK_I_binding pIC50: compound, 50 nM Tracer 236, 2 nM anti-GST antibody, 60 minutes, pIC50 = negative log of the IC50 in molar
Experimental: BTK Kinase Lanthascreen Binding Assay:
A BTK kinase lanthascreen binding assay monitors compound binding to unphosphorylated-BTK kinase domain (UP-BTK), by competing with a fluorescent labeled tracer. […] Data were analyzed using Xlfit™ version 5.3 from ID Business Solutions (Guildford), Microsoft Excel add-in. pIC50 refers to the negative log of the IC50 in molar.

unphosphorylated-BTK kinase domain (UP-BTK), GST-tagged human BTK (389-659aa), sequence (Q06187 389-659): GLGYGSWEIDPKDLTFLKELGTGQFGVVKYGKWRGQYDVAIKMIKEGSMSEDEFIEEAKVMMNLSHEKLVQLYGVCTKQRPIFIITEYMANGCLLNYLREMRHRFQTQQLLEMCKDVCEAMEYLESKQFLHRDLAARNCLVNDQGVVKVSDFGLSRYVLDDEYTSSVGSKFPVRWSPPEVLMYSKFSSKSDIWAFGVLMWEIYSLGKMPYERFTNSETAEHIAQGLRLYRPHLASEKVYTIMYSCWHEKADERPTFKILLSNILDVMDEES

Row | Structure (SMILES) | BTK_I_binding pIC50 | IC50 (read-out: BTK_I_binding pIC50 (converted)) [nM]
1 | Cc1cc(Oc2ccccc2)ccc1N1C(=O)Nc2c(C(=O)N[C@H]3CC[C@@H](N(C)C)CC3)sc3nccc1c23 [Example 99, N-((1S,4S)-4-(Dimethylamino)cyclohexyl)-5-(*S)-(2-methyl-4-phenoxyphenyl)-4-oxo-4,5-dihydro-3H-1-thia-3,5,8-triazaacenaphthylene-2-carboxamide] | 7.03 | 
2 | Cc1cc(Oc2ccccc2)ccc1N1C(=O)Nc2c(C(=O)N[C@H]3CC[C@@H](N(C)C)CC3)sc3nccc1c23 [Example 100, N-((1S,4S)-4-(Dimethylamino)cyclohexyl)-5-(*R)-(2-methyl-4-phenoxyphenyl)-4-oxo-4,5-dihydro-3H-1-thia-3,5,8-triazaacenaphthylene-2-carboxamide] | 5.86 | 
3 | C=CC(=O)N[C@H]1CCC[C@H]1NC(=O)c1sc2nccc3c2c1NC(=O)N3c1ccc(Oc2ccccc2)cc1 [Example 104, N-((1R,2S)-2-acrylamidocyclopentyl)-4-oxo-5-(4-phenoxyphenyl)-4,5-dihydro-3H-1-thia-3,5,8-triazaacenaphthylene-2-carboxamide] | 8.37 | 
4 | C=CC(=O)N[C@H]1CCCC[C@H]1NC(=O)c1sc2nccc3c2c1NC(=O)N3c1cccc(-c2ccccc2)c1 [Example 106, 5-([1,1′-Biphenyl]-3-yl)-N-((1R,2S)-2-acrylamidocyclohexyl)-4-oxo-4,5-dihydro-3H-1-thia-3,5,8-triazaacenaphthylene-2-carboxamide] | 8.06 | 
5 | C=CC(=O)N[C@@H]1CC[C@H](NC(=O)c2sc3nccc4c3c2NC(=O)N4c2ccc(OC(C)C)cc2C)C1 [Example 110, N-((1S,3R)-3-Acrylamidocyclopentyl)-5-(4-isopropoxy-2-methylphenyl)-4-oxo-4,5-dihydro-3H-1-thia-3,5,8-triazaacenaphthylene-2-carboxamide] | 7.23 | 
6 | C=CC(=O)N[C@@H]1CC[C@H](NC(=O)c2sc3nccc4c3c2NC(=O)N4c2ccc(Oc3ccccc3)cc2)C1 [Example 117, N-((1S,3R)-3-Acrylamidocyclopentyl)-4-oxo-5-(4-phenoxyphenyl)-4,5-dihydro-3H-1-thia-3,5,8-triazaacenaphthylene-2-carboxamide] |  | 15.8
7 | C=CC(=O)N[C@H]1CCCC[C@H]1NC(=O)c1sc2nccc3c2c1NC(=O)N3c1ccc(Oc2ccccc2)cc1 [Example 118, N-((1R,2S)-2-Acrylamidocyclohexyl)-4-oxo-5-(4-phenoxyphenyl)-4,5-dihydro-3H-1-thia-3,5,8-triazaacenaphthylene-2-carboxamide] | 8.12 | 
8 | C=CC(=O)N[C@H]1CC[C@@H](NC(=O)c2sc3nccc4c3c2NC(=O)N4c2ccc(Oc3ccccc3)cc2)CC1 [Example 119, N-((1S,4S)-4-Acrylamidocyclohexyl)-4-oxo-5-(4-phenoxyphenyl)-4,5-dihydro-3H-1-thia-3,5,8-triazaacenaphthylene-2-carboxamide] | 7.61 | 
9 | C=CC(=O)N[C@H]1CC[C@@H](NC(=O)c2sc3nccc4c3c2NC(=O)N4c2ccc(Oc3ccccc3)cc2)C1 [Example 121, N-((1R,3S)-3-Acrylamidocyclopentyl)-4-oxo-5-(4-phenoxyphenyl)-4,5-dihydro-3H-1-thia-3,5,8-triazaacenaphthylene-2-carboxamide] | 6.57 | 
10 | C=CC(=O)N[C@@H]1CCCC[C@@H]1NC(=O)c1sc2nccc3c2c1NC(=O)N3c1ccc(Oc2ccccc2)cc1 [Example 124, N-((1S,2R)-2-Acrylamidocyclohexyl)-4-oxo-5-(4-phenoxyphenyl)-4,5-dihydro-3H-1-thia-3,5,8-triazaacenaphthylene-2-carboxamide] | 6.71 | 
11 | N[C@H]1CCCC[C@H]1NC(=O)c1sc2nccc3c2c1NC(=O)N3c1ccc(Oc2ccccc2)cc1 [Example 126, N-((1R,2S)-2-Aminocyclohexyl)-4-oxo-5-(4-phenoxyphenyl)-4,5-dihydro-3H-1-thia-3,5,8-triazaacenaphthylene-2-carboxamide] | 7.13 | 
12 | C=CC(=O)N[C@@H]1CCC[C@@H]1NC(=O)c1sc2nccc3c2c1NC(=O)N3c1ccc(Oc2ccccc2)cc1 [Example 127, N-((1S,2R)-2-Acrylamidocyclopentyl)-4-oxo-5-(4-phenoxyphenyl)-4,5-dihydro-3H-1-thia-3,5,8-triazaacenaphthylene-2-carboxamide] | 6.56 | 
13 | N[C@H]1CCCC[C@H]1NC(=O)c1sc2nccc3c2c1NC(=O)N3c1ccc(Oc2ccccc2)c(Cl)c1 [Example 137, N-((1R,2S)-2-Aminocyclohexyl)-5-(3-chloro-4-phenoxyphenyl)-4-oxo-4,5-dihydro-3H-1-thia-3,5,8-triazaacenaphthylene-2-carboxamide] | 7.49 | 
14 | O=C(N[C@@H]1CCC[C@@H](O)C1)c1sc2nccc3c2c1NC(=O)N3c1ccc(Oc2ccccc2)cc1 [Example 139, N-((1R,3R)-3-Hydroxycyclohexyl)-4-oxo-5-(4-phenoxyphenyl)-4,5-dihydro-3H-1-thia-3,5,8-triazaacenaphthylene-2-carboxamide] | 7.23 | 
15 | O=C(N[C@@H]1CCC[C@@H]1O)c1sc2nccc3c2c1NC(=O)N3c1ccc(Oc2ccccc2)cc1 [Example 140, N-((1R,2S)-2-Hydroxycyclopentyl)-4-oxo-5-(4-phenoxyphenyl)-4,5-dihydro-3H-1-thia-3,5,8-triazaacenaphthylene-2-carboxamide] | 7.15 | 
16 | N[C@H]1CCCC[C@H]1NC(=O)c1sc2nccc3c2c1NC(=O)N3c1cccc(-c2ccccc2)c1 [Example 141, 5-([1,1′-Biphenyl]-3-yl)-N-((1R,2S)-2-aminocyclohexyl)-4-oxo-4,5-dihydro-3H-1-thia-3,5,8-triazaacenaphthylene-2-carboxamide] | 7.01 | 
17 | O=C(N[C@@H]1CCC[C@H](O)C1)c1sc2nccc3c2c1NC(=O)N3c1ccc(Oc2ccccc2)cc1 [Example 142, N-((1R,3S)-3-Hydroxycyclohexyl)-4-oxo-5-(4-phenoxyphenyl)-4,5-dihydro-3H-1-thia-3,5,8-triazaacenaphthylene-2-carboxamide] | 6.87 | 
18 | O=C(N[C@H]1CCC[C@H](O)C1)c1sc2nccc3c2c1NC(=O)N3c1ccc(Oc2ccccc2)cc1 [Example 143, N-((1S,3S)-3-Hydroxycyclohexyl)-4-oxo-5-(4-phenoxyphenyl)-4,5-dihydro-3H-1-thia-3,5,8-triazaacenaphthylene-2-carboxamide] | 6.75 | 
19 | O=C(N[C@@H]1CCC[C@H]1O)c1sc2nccc3c2c1NC(=O)N3c1cccc(-c2ccccc2)c1 [Example 144, 5-([1,1′-Biphenyl]-3-yl)-N-((1R,2R)-2-hydroxycyclopentyl)-4-oxo-4,5-dihydro-3H-1-thia-3,5,8-triazaacenaphthylene-2-carboxamide] | 6.69 | 
20 | N[C@H]1CC[C@@H](NC(=O)c2sc3nccc4c3c2NC(=O)N4c2ccc(Oc3ccccc3)cc2)CC1 [Example 145, N-((1S,4S)-4-Aminocyclohexyl)-4-oxo-5-(4-phenoxyphenyl)-4,5-dihydro-3H-1-thia-3,5,8-triazaacenaphthylene-2-carboxamide] | 6.69 | 
